Assay results: ChEMBL document CHEMBL1141418 (J Med Chem, 2007)
Positions of bridges follow the written chain, without caps; N, C: chain ends. Non-standard residues stand in square brackets, D forms with d. Residues, ends and D or L forms follow the SMILES beside them. Cha = N[C@@H](CC1CCCCC1)C(=O)O; Orn = NCCC[C@H](N)C(=O)O; Dab = NCC[C@H](N)C(=O)O; Dap = NC[C@H](N)C(=O)O; Mpa = O=C(O)CCS

How the values were obtained:
Oxytocin receptor [1] = molecular target: T1, Oxytocin receptor (Homo sapiens, UniProt P30559); assay: (§1) Activity at OT receptor assessed as oxytocic activity in absence of magnesium; format: functional; conditions: read-out: pA2 (converted)
T1 sequence (P30559 whole entry): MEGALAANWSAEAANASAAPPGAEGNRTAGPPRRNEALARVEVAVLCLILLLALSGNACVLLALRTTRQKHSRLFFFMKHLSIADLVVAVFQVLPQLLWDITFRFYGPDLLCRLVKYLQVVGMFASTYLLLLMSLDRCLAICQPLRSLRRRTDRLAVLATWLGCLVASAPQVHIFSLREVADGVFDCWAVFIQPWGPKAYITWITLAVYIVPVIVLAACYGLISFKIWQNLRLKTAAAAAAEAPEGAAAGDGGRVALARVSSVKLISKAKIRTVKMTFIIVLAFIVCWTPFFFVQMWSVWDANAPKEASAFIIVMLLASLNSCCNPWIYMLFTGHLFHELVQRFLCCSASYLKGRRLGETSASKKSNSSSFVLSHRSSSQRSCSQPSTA

Vasopressin V2 receptor = Vasopressin V2 receptor (Rattus norvegicus, UniProt Q00788); assay: Displacement of [3H]AVP from vasopressin V2 receptor in rat kidney membranes; format: cell membranes, Membrane
Chain of Vasopressin V2 receptor (Q00788 whole entry): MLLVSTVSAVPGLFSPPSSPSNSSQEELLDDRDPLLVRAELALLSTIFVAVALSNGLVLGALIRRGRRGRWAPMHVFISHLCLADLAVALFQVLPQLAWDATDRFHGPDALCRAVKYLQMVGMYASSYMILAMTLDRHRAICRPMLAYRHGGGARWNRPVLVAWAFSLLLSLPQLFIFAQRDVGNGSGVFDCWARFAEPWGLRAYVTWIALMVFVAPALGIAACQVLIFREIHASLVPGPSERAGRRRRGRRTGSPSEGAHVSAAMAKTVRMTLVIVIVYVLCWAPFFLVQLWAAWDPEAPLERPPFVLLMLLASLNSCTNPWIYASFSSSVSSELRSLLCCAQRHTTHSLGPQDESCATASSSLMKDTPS

Rattus norvegicus [2] = organism: Rattus norvegicus; assay: Antidiuretic activity in rat; format: functional, Urine
Oxytocin receptor [3] = molecular target: T2, Oxytocin receptor (Rattus norvegicus, UniProt P70536); assay: Displacement of [3H]AVP from rat OT receptor expressed in CHO cells; format: cell-based
T2 sequence (P70536 whole entry): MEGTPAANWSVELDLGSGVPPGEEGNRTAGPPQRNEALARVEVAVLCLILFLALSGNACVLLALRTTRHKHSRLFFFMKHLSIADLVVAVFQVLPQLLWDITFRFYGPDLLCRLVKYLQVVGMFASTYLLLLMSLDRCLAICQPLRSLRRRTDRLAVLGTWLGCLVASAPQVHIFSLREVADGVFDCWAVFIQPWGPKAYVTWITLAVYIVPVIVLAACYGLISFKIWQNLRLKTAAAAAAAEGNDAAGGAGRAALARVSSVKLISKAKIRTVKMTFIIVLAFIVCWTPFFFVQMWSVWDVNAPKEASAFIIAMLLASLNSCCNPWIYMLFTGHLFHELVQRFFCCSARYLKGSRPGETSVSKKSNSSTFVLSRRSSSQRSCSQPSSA

Vasopressin V1a receptor = Vasopressin V1a receptor (Rattus norvegicus, UniProt P30560); assay: Displacement of [3H]AVP from vasopressin V1a receptor in rat liver membrane; format: cell membranes
Chain of Vasopressin V1a receptor (P30560 whole entry): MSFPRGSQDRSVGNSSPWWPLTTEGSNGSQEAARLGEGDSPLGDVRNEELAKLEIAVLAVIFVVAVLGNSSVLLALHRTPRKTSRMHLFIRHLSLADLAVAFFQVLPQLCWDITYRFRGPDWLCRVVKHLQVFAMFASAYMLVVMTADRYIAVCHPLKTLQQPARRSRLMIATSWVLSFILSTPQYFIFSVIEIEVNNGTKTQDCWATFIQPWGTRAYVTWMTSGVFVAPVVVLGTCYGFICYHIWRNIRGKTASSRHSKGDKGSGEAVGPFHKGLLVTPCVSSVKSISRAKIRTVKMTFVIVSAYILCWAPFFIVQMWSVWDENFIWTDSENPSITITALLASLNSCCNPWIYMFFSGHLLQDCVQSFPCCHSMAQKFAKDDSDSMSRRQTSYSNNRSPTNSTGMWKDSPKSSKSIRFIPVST

Rattus norvegicus [4] = organism: Rattus norvegicus; assay: Vasopressor activity in rat; format: functional
[5] = molecular target: T3, Oxytocin receptor (Homo sapiens) (UniProt P30559); assay: as §1; format: functional; conditions: filed as agonist
T3 sequence (whole entry): T1 sequence (P30559 whole entry)

[6] = molecular target: Vasopressin V2 receptor (Rattus norvegicus) (UniProt Q00788); assay: Activity at vasopressin V2 receptor in rat kidney membranes assessed as adenylate cyclase activity; format: functional, cell membranes; conditions: Membrane, filed as agonist
Chain of Vasopressin V2 receptor (Rattus norvegicus) (Q00788 whole entry): as the sequence (Q00788 whole entry) above

[7] = molecular target: Vasopressin V2 receptor (Rattus norvegicus) (UniProt Q00788); assay: Activity at vasopressin V2 receptor in rat kidney membranes assessed as maximal adenylate cyclase activity relative to AVP; format: functional, cell membranes; conditions: Membrane, filed as agonist
[8] = molecular target: T4, Vasopressin V1b receptor (Rattus norvegicus) (UniProt P48974); conditions: AtT20, filed as agonist
T4 sequence (whole entry): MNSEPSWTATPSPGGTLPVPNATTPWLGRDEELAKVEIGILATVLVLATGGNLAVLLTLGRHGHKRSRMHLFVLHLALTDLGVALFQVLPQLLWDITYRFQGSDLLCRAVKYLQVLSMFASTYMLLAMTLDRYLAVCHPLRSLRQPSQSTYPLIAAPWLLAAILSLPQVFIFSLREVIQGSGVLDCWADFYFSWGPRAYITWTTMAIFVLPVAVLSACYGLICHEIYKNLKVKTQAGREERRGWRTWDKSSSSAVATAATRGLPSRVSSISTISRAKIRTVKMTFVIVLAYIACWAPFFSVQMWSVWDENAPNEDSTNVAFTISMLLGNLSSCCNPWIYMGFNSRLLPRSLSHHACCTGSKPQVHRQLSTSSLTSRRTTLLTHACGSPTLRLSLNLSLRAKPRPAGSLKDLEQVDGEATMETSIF

Compound	Kb (Oxytocin receptor [1])	Ki (Vasopressin V2 receptor)	Activity (Rattus norvegicus [2]) [U/mg]	Ki (Oxytocin receptor [3])	Ki (Vasopressin V1a receptor)	Activity (Rattus norvegicus [4]) [U/mg]	Activity [5] [U/mg]	Kact [6] [nM]	Activity [7] [%]	Kact [8] [nM]
NC[C@H](NC(=O)[C@@H]1CCCN1C(=O)[C@@H]1CSSCCC(=O)N[C@@H](Cc2ccc(O)cc2)C(=O)N[C@@H](Cc2ccccc2)C(=O)N[C@@H](CC2CCCCC2)C(=O)N[C@@H](CC(N)=O)C(=O)N1)C(=O)NCC(N)=O ([Mpa]YF[Cha]NCP[Dap]G-NH2; disulfide 1-6)	479 nM (agonist)	1050 nM (antagonist)	0.3	1200 nM (antagonist)	1800 nM (antagonist)	0.002				
NCCCC[C@H](NC(=O)[C@@H]1CCCN1C(=O)[C@@H]1CSSCCC(=O)N[C@@H](Cc2ccc(O)cc2)C(=O)N[C@@H](Cc2ccccc2)C(=O)N[C@@H](CC2CCCCC2)C(=O)N[C@@H](CC(N)=O)C(=O)N1)C(=O)NCC(N)=O ([Mpa]YF[Cha]NCPKG-NH2; disulfide 1-6)	331 nM (agonist)	600 nM (antagonist)	0.82	590 nM (antagonist)	9100 nM (antagonist)	0.043				
NCCC[C@H](NC(=O)[C@@H]1CCCN1C(=O)[C@@H]1CSSCCC(=O)N[C@@H](Cc2ccc(O)cc2)C(=O)N[C@@H](Cc2ccccc2)C(=O)N[C@@H](CC2CCCCC2)C(=O)N[C@@H](CC(N)=O)C(=O)N1)C(=O)NCC(N)=O ([Mpa]YF[Cha]NCP[Orn]G-NH2; disulfide 1-6)	282 nM (agonist)	450 nM (antagonist)	1	550 nM (antagonist)	2900 nM (antagonist)	0.22				
CC(C)C[C@@H]1NC(=O)[C@H](Cc2ccccc2)NC(=O)[C@H](Cc2ccc(O)cc2)NC(=O)CCSSC[C@@H](C(=O)N2CCC[C@H]2C(=O)N[C@@H](CN)C(=O)NCC(N)=O)NC(=O)[C@H](CC(N)=O)NC1=O ([Mpa]YFLNCP[Dap]G-NH2; disulfide 1-6)		240 nM (antagonist)	0.7	134 nM (antagonist)	3300 nM (antagonist)	0.05	0.046	300	97	
CC(C)C[C@@H]1NC(=O)[C@H](Cc2ccccc2)NC(=O)[C@H](Cc2ccc(O)cc2)NC(=O)CCSSC[C@@H](C(=O)N2CCC[C@H]2C(=O)N[C@@H](CCCCN)C(=O)NCC(N)=O)NC(=O)[C@H](CC(N)=O)NC1=O ([Mpa]YFLNCPKG-NH2; disulfide 1-6)		100 nM (antagonist)	10.5	64 nM (antagonist)	3800 nM (antagonist)	0.9	0.054	196	76	
NC(=O)CNC(=O)[C@H](CCCN=C(N)N)NC(=O)[C@@H]1CCCN1C(=O)[C@@H]1CSSCCC(=O)N[C@@H](Cc2ccc(O)cc2)C(=O)N[C@@H](Cc2ccccc2)C(=O)N[C@@H](CC2CCCCC2)C(=O)N[C@@H](CC(N)=O)C(=O)N1 ([Mpa]YF[Cha]NCPRG-NH2; disulfide 1-6)		12.7 nM (antagonist)	133.6		2300 nM (antagonist)	0.067			86	
CC(C)C[C@@H]1NC(=O)[C@H](Cc2ccccc2)NC(=O)[C@H](Cc2ccc(O)cc2)NC(=O)CCSSC[C@@H](C(=O)N2CCC[C@H]2C(=O)N[C@@H](CCN)C(=O)NCC(N)=O)NC(=O)[C@H](CC(N)=O)NC1=O ([Mpa]YFLNCP[Dab]G-NH2; disulfide 1-6)		210 nM (antagonist)	5.7	41 nM (antagonist)	1000 nM (antagonist)	3.5	0.27			
N=C(N)NCCC[C@H](NC(=O)[C@@H]1CCCN1C(=O)[C@@H]1CSSC[C@H](N)C(=O)N[C@@H](Cc2ccc(O)cc2)C(=O)N[C@@H](Cc2ccccc2)C(=O)N[C@@H](CCC(N)=O)C(=O)N[C@@H](CC(N)=O)C(=O)N1)C(=O)NCC(N)=O [VASOPRESSIN]			323					0.32		2.3
NCCC[C@@H]1NC(=O)[C@H](Cc2ccccc2)NC(=O)[C@H](Cc2ccc(O)cc2)NC(=O)CCSSC[C@@H](C(=O)N2CCC[C@H]2C(=O)N[C@@H](CCCN)C(=O)NCC(N)=O)NC(=O)[C@H](CC(N)=O)NC1=O ([Mpa]YF[Orn]NCP[Orn]G-NH2; disulfide 1-6)		76 nM (antagonist)	7.9	37 nM (antagonist)	1300 nM (antagonist)	1.9	2.8			
NCC[C@H](NC(=O)[C@@H]1CCCN1C(=O)[C@@H]1CSSCCC(=O)N[C@@H](Cc2ccc(O)cc2)C(=O)N[C@@H](Cc2ccccc2)C(=O)N[C@@H](CC2CCCCC2)C(=O)N[C@@H](CC(N)=O)C(=O)N1)C(=O)NCC(N)=O ([Mpa]YF[Cha]NCP[Dab]G-NH2; disulfide 1-6)	447 nM (agonist)	450 nM (antagonist)	1	430 nM (antagonist)	4400 nM (antagonist)	0.18		174	75	
